{
  "source": "patent US11433042B2",
  "about": "“Methods and compositions for treating metabolic disorders” (Joslin Diabetes Center, Inc., priority 2017, dated 2022)",
  "key": {"lipoprotein lipase (LPL)": {"test_system": "lipoprotein lipase (LPL)", "assay": "mRNA expression by qPCR in tissue from 12,13-diHOME treated mice", "type": "in vivo", "conditions": "diet-induced obese mice, 2 weeks at 10 μg/kg body weight", "protocol": "For the experiments with daily injections of 12,13-diHOME, mice were fed with a high-fat diet containing 60 kcal % fat (Research Diets Stock no. D12492) for 16 weeks prior to treatment and during the course of the experiment. Mice were first injected intraperitoneally daily with 1 ug/kg body weight, 12,13-diHOME in 0.1% BSA w/v in PBS or vehicle and body for one week, then injected every day with 10 ug/kg body weight two weeks. For all experiments, serum was collected and triglycerides were measured using a standard enzymatic assay (ZenBiosystems). Non-esterified FA were also measured with a colorimetric assay (Wako Chemicals USA). High-density and low-density lipoprotein fractions were isolated and cholesterol was measured with a colorimetric assay (Abcam). All mice were allowed ad libitum access to water and food. Total RNA was extracted from tissue with Trizol and purified using a spin column kit (Zymo Research). RNA (500 ng-1 μg) was reverse transcribed with a high-capacity complementary DNA (cDNA) reverse transcription kit (Applied Biosystems). Real-time PCR was performed in mouse tissues starting with 10 ng of cDNA and forward and reverse oligonucleotide primers (300 nM each) in a final volume of 10 μl with SYBR green PCR Master Mix (Roche). Fluorescence was determined and analyzed in an ABI Prism 7900 sequence detection system (Applied Biosystems). […]"}, "[1]": {"assay": "Oral lipid tolerance test", "type": "in vivo", "conditions": "mice given an oral bolus of triglyceride, serum triglyceride"}, "BAT [2]": {"test_system": "BAT", "assay": "In vivo radiolabeled organ distribution studies (oleate, glucose, triolein)", "conditions": "mice", "protocol": "For in vivo fatty acid organ distribution studies, an oleate/^3H-oleate tracer mix was complexed to fatty acid-free BSA (Schlein, et al., Cell Metab. 23, 441-453 (2016)) and injected into the tail vein of wild type C57BL/6J mice 15 minutes after treatment with either vehicle, 1 μg/kg body weight 12,13-diHOME in 0.1% BSA PBS or NE. Similarly, radiolabeled organ distribution studies were performed in mice either by injection into the tail vein with 2-desoxy-D-[^14C]-glucose (PerkinElmer, 0.025 mCi per kg) in PBS or orally gavaged with 10 mL/kg olive oil (Sigma) containing [9,10-^3H(N)]-triolein (PerkinElmer, 0.3 mCi/kg). In all assays, organs were harvested after 15 minutes under terminal anesthesia and systemic perfusion with PBS-heparin (10 U/ml) via the left heart ventricle. Tissues were homogenized by using Solvable (PerkinElmer) and disintegrations per minute per organ data were calculated by scintillation counting."}, "BAT [3]": {"test_system": "BAT", "assay": "In vivo bioluminescent fatty acid uptake (FFA-SS-Luc) in UCP1cre+/− Rosa(stop)Luc+/− mice", "conditions": "1 ug/kg, compared to vehicle", "protocol": "For in vivo bioluminescent fatty acid uptake experiments, UCP1cre^+/- mice (Stock no. 024670) were bred with Rosa(stop)Luc^+/+ (Stock no. 005125), both obtained from The Jackson Laboratory. Male offspring carrying the UCP1-cre allele were injected retro-orbitally with 1 ug/kg body weight 12,13-diHOME in 0.1% BSA PBS or vehicle, and all mice were co-injected with 2 μm FFA-SS-Luc ([…] Medical). Mice were anesthetized with isofluorane and imaged using the IVIS Spectrum CT using sequential 30 s exposures for 1 hour. Data was analyzed using Living Image Software and movies were assembled from individual images using ImageJ."}},
  "data": [
    {"molecule": "CCCCCC(O)C(O)C/C=C\\CCCCCCCC(=O)O", "note": "(stereo not drawn) [12,13-diHOME, 12,13-dihydroxy-9Z-octadecenoic acid]", "values": [
      {"measurement": "expression of lipoprotein lipase (LPL) in BAT", "setting": "lipoprotein lipase (LPL)", "result": "increased"},
      {"measurement": "oral lipid tolerance", "setting": "[1]", "result": "improved"},
      {"measurement": "FA uptake into BAT", "setting": "BAT [2]; 1 μg/kg, radiolabeled oleate, similar level achieved by NE", "result": "significant increase"},
      {"measurement": "glucose uptake into BAT", "setting": "BAT [2]; radiolabeled glucose, similar level achieved by NE", "result": "significant increase"},
      {"measurement": "BAT specific uptake of radiolabeled triglyceride", "setting": "BAT [2]; triglyceride delivered by oral gavage", "result": "enhanced"},
      {"measurement": "luminescent signal in BAT (brown adipocyte FA uptake)", "setting": "BAT [3]", "result": "significantly increased"}
    ]}
  ]
}
